Patent US8653087B2, “Pyrido [5, 4-D] pyrimidines as cell proliferation inhibitors” (Boehringer Ingelheim International GmbH, priority 2008, dated 2014)
pIC50: −log10 of the molar value.

Biological target: B-Raf (V600E)-kinase (Homo sapiens (Human), UniProt P15056, V600E)
Experiment: Kinase test B-RAF (V600E)
Format: biochemical
Details: B-RAF (V600E) kinase test, 250 μM ATP
In short: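 B-Raf (V600E) (0.5 ng) preincubated with compound 24 h at RT (5% DMSO), then reacted 60 min at RT with 250 μM ATP and biotinylated MEK1 as substrate. Phospho-MEK (Ser217/221) captured on streptavidin and detected by europium time-resolved fluorescence; IC50 from dose-response curves.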

Chain of B-Raf (V600E)-kinase (P15056 whole entry V600E): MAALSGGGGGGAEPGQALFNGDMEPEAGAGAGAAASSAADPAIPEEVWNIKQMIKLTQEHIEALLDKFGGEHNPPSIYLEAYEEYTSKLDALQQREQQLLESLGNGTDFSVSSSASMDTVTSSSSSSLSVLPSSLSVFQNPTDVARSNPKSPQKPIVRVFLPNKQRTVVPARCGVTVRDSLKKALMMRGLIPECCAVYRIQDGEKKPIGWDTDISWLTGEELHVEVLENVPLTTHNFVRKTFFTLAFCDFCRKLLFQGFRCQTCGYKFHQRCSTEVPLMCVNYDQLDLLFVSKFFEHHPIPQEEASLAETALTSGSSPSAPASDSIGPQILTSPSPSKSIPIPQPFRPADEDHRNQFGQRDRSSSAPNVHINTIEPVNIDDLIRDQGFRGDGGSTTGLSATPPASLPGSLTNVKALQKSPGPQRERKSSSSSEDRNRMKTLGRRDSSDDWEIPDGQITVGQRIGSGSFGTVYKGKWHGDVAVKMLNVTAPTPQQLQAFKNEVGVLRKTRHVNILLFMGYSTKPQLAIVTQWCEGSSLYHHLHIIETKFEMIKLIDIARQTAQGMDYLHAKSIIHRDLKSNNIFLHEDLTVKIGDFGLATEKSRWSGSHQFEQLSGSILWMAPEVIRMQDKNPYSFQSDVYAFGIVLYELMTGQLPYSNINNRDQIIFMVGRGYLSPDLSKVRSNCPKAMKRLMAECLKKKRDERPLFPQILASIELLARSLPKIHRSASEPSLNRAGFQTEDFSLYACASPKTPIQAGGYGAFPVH

Compound	pIC50
Cc1ccc(C(=O)Nc2cc(N3CCCN(C)CC3)cc(C(F)(F)F)c2)cc1Nc1ncnc2cnc(N3CCOCC3)nc12 [III-463]	8.70
Cc1ccc(C(=O)Nc2cc(C(C)(C)C)on2)cc1N(C)c1ncnc2cnc(N3CCOCC3)nc12 [III-580]	7.55
COc1ccc(C(F)(F)F)cc1NC(=O)c1ccc(C)c(Nc2ncnc3cnc(N4CCCN(C)CC4)nc23)c1 [III-219]	8.10
CCN1CCN(c2ncc3ncnc(Nc4cc(NC(=O)c5cccc(C(C)(C)C#N)c5)ccc4C)c3n2)CC1 [IV-27]	9.00
Cc1ccc(C(=O)Nc2cccc(S(=O)(=O)N(C)C)c2)cc1Nc1ncnc2cnc(N3CCCN(C)CC3)nc12 [III-251]	7.72
Cc1ccc(C(=O)Nc2cc(C(C)(C)C)n[nH]2)cc1Nc1ncnc2c(N)nc(N3CCN(C)CC3)nc12 [I-18]	8.52
Cc1ccc(C(=O)Nc2cc(C(C)(C)C)on2)cc1Nc1ncnc2cnc(N3CCN(CC4CCCN(C)C4)CC3)nc12 (stereo not drawn) [III-483]	9.00
COc1ccc(NC(=O)c2ccc(C)c(Nc3ncnc4cnc(NCC5CCCCO5)nc34)c2)cc1C(F)(F)F (stereo not drawn) [III-544]	9.00
Cc1ccc(C(=O)Nc2cc(CN3CCCC3)cc(C(F)(F)F)c2)cc1Nc1ncnc2cnc(NCC(C)C)nc12 [III-112]	8.70
COCCN(C)c1ncc2ncnc(Nc3cc(C(=O)Nc4cc(C(F)(F)F)ccn4)ccc3C)c2n1 [III-472]	8.70
Cc1ccc(C(=O)NC2CCCCC2)cc1Nc1ncnc2cnc(N(C)CCN(C)C)nc12 [III-201]	< 5.00
Cc1ccc(C(=O)Nc2cc(C(C)(C)C)on2)cc1Nc1ncnc2cnc(N3CCOCC3)nc12 [III-516]	> 9.00
COc1ccc(C(=O)Nc2cccc(C(F)(F)F)c2)cc1Nc1ncnc2c(N)nc(N3CCN(C)CC3)nc12 [I-30]	7.46
Cc1ccc(C(=O)Nc2cc(C(C)(C)C)on2)cc1Nc1ncnc2cnc(N3CCC(N(C)C)CC3)nc12 [III-495]	8.70
COc1ncc2ncnc(Nc3cc(C(=O)Nc4cc(N5CCN(C(C)C)CC5)cc(C(F)(F)F)c4)ccc3C)c2n1 [III-567]	8.70
CN(CCN1CCCC1)c1ncc2ncnc(Nc3cc(C(=O)Nc4cc(C(C)(C)C)on4)ccc3Cl)c2n1 [III-71]	8.52
CCN1CCN(c2cc(NC(=O)c3ccc(C)c(Nc4ncnc5c(N)nc(N6CCCC6)nc45)c3)cc(C(F)(F)F)c2)CC1 [I-87]	8.05
COCCN1CCN(c2ncc3ncnc(Nc4cc(C(=O)Nc5cc(C(F)(F)F)ccc5Cl)ccc4C)c3n2)CC1 [III-533]	8.22
Cc1ccc(C(=O)Nc2nnc(C(F)(F)F)s2)cc1Nc1ncnc2cnc(N3CCOCC3)nc12 [III-313]	6.70
COCCN(C)c1ncc2ncnc(Nc3cc(C(=O)Nc4cccc(C(C)(C)C)c4)ccc3C)c2n1 [III-468]	> 9.00
Cc1ccc(C(=O)NCc2cccc(C(F)(F)F)c2)cc1Nc1ncnc2cnc(N3CCN(C)CC3)nc12 [III-188]	6.98
Cc1ccc(C(=O)Nc2ccc(Cl)c(C(F)(F)F)c2)cc1Nc1ncnc2cnc(N3CC[C@H](F)C3)nc12 [III-289]	7.89
CC(C)(C)c1cc(NC(=O)c2ccc(F)c(Nc3ncnc4cnc(N5CCOCC5)nc34)c2)[nH]n1 [III-391]	9.00
Cc1ccc(C(=O)Nc2cc(CN3CCCC3)cc(C(F)(F)F)c2)cc1Nc1ncnc2cnc(NCc3ccncc3)nc12 [III-114]	8.70

Compound	pIC50
Cc1ccc(C(=O)Nc2cccc(S(=O)(=O)N(C)C)c2)cc1Nc1ncnc2cnc(N3CC[C@H](F)C3)nc12 [III-293]	8.15
COc1ccc(NC(=O)c2ccc(Cl)c(Nc3ncnc4cnc(N5CCN(C)CC5)nc34)c2)cc1C(F)(F)F [III-9]	8.15
COc1ccc(NC(=O)c2ccc(C)c(Nc3ncnc4cnc(N(C)C5CCOC5)nc34)c2)cc1C(F)(F)F (stereo not drawn) [III-548]	8.52
CN(C)CCN(C)c1ncc2ncnc(Nc3cc(C(=O)Nc4cc(C(C)(C)C)on4)ccc3Cl)c2n1 [III-79]	9.00
Cc1ccc(C(=O)Nc2cc(N(C)CCN(C)C)cc(C(F)(F)F)c2)cc1Nc1ncnc2cnc(NCc3ccncc3)nc12 [III-173]	9.00
Cc1ccc(C(=O)Nc2ccc(C(F)(F)F)cc2)cc1Nc1ncnc2c(N)nc(N3CCCN(C)CC3)nc12 [I-3]	8.05
COCCNc1ncc2ncnc(Nc3cc(C(=O)Nc4cc(OCCN(C)C)cc(C(F)(F)F)c4)ccc3C)c2n1 [III-151]	9.00
Cc1ccc(C(=O)Nc2cc(N3CCN(CC(C)C)CC3)cc(C(F)(F)F)c2)cc1Nc1ncnc2cnc(N3CC[C@H](F)C3)nc12 [III-455]	8.10
Cc1ccc(C(=O)Nc2cc(C(C)(C)C)nn2C)cc1Nc1ncnc2cncnc12 [V-10]	7.85
Cc1ccc(C(=O)Nc2cc(C(C)(C)C)on2)cc1Nc1ncnc2c(N)nc(N3CCCN(C)CC3)nc12 [I-11]	9.00
Cc1ccc(C(=O)Nc2ccc(F)c(C(F)(F)F)c2)cc1Nc1ncnc2cnc(N3CCOCC3)nc12 [III-314]	8.05
Cc1ccc(C(=O)Nc2cccc(C(F)(F)F)c2)cc1Nc1ncnc2cnc(N3CCCCC3)nc12 [III-330]	8.22
CNc1ncc2ncnc(Nc3cc(C(=O)Nc4cc(C(C)(C)C)on4)ccc3F)c2n1 [III-94]	8.22
Cc1ccc(NC(=O)c2cc(C(C)(C)C)on2)cc1Nc1ncnc2cnc(N3CCN(C)CC3)nc12 [IV-5]	6.89
Cc1ccc(C(=O)Nc2cc(C(C)(C)C)on2)cc1Nc1ncnc2cnc(N3CCN(C4CC4)CC3)nc12 [III-493]	8.30
COc1ccc(NC(=O)c2ccc(C(F)(F)F)c(Nc3ncnc4cnc(NCCCN5CCOCC5)nc34)c2)cc1C(F)(F)F [III-49]	6.23
Cc1ccc(C(=O)Nc2cccc(S(=O)(=O)N(C)C)c2)cc1Nc1ncnc2cnc(N3CCCCC3)nc12 [III-334]	8.00
COc1ccc(NC(=O)c2ccc(C(F)(F)F)c(Nc3ncnc4cnc(N5CCCCCC5)nc34)c2)cc1C(F)(F)F [III-44]	< 5.70
Cc1ccc(C(=O)Nc2cc(OCCN(C)C)cc(C(F)(F)F)c2)cc1Nc1ncnc2cnc(N3CCCC3)nc12 [III-150]	8.70
Cc1ccc(C(=O)Nc2cc(OCCN(C)C)cc(C(F)(F)F)c2)cc1Nc1ncnc2cnc(N3CCC3)nc12 [III-143]	8.70
Cc1ccc(C(=O)Nc2cccc(S(=O)(=O)N(C)C)c2)cc1Nc1ncnc2cnc(N3CCNCC3)nc12 [III-344]	8.15
COc1ccc(NC(=O)c2ccc(C)c(Nc3ncnc4cnc(NCC(C)C)nc34)c2)cc1C(F)(F)F [III-547]	> 9.00
Cc1ccc(C(=O)NCc2ccc(C(F)(F)F)cc2)cc1Nc1ncnc2cnc(N3CCOCC3)nc12 [III-307]	6.94
Cc1ccc(C(=O)Nc2cc(N(C)CCN(C)C)cc(C(F)(F)F)c2)cc1Nc1ncnc2c(N)nc(N3CC[C@H](F)C3)nc12 [I-86]	8.40

Compound	pIC50
Cc1ccc(NS(C)(=O)=O)cc1Nc1ncnc2cnc(N3CCN(C)CC3)nc12 [IV-66]	5.00
COCCN1CCN(c2ncc3ncnc(N(C)c4cc(C(=O)Nc5ccc(OC)c(C(F)(F)F)c5)ccc4C)c3n2)CC1 [III-586]	6.71
Cc1ccc(C(=O)Nc2cc(N3CCN(CCO)CC3)cc(C(F)(F)F)c2)cc1Nc1ncnc2cnc(N3CCOCC3)nc12 [III-526]	8.40
COc1ccc(NC(=O)c2ccc(C)c(Nc3ncnc4cnc(N5CCN(CC6CCN(C)CC6)CC5)nc34)c2)cc1C(F)(F)F [III-419]	9.00
Cc1ccc(C(=O)Nc2ccc(N(C)CCN(C)C)c(C(F)(F)F)c2)cc1Nc1ncnc2cnc(N3CCOCC3)nc12 [III-130]	8.52
CN1CCC(N2CCN(c3nc(N)c4ncnc(Nc5cc(C(=O)Nc6cccc(C(F)(F)F)c6)ccc5Cl)c4n3)CC2)CC1 [I-25]	8.52
Cc1ccc(C(=O)Nc2ccc(C#N)c(C(F)(F)F)c2)cc1Nc1ncnc2cnc(N3CCCC3)nc12 [III-273]	7.51
Cc1ccc(C(=O)Nc2cc(OCCN3CCOCC3)cc(C(F)(F)F)c2)cc1Nc1ncnc2cnc(N3CCOCC3)nc12 [III-529]	8.52
Cc1ccc(C(=O)Nc2ccc(C(F)(F)F)cc2)cc1Nc1ncnc2c(N)nc(N3CCN(C4CCN(C)CC4)CC3)nc12 [I-7]	8.52
Cc1ccc(NC(=O)c2cccc(C(F)(F)F)c2)cc1Nc1ncnc2c(N)nc(N3CC(C)NC(C)C3)nc12 (stereo not drawn) [II-15]	7.40
Cc1ccc(NC(=O)c2cc(N3CCN(C)CC3)cc(C(C)(C)C#N)c2)cc1Nc1ncnc2cnc(N3CCOCC3)nc12 [IV-68]	8.52
COc1ccc(C(C)(C)C)cc1NC(=O)c1ccc(C)c(Nc2ncnc3cnc(N4CC[C@H](F)C4)nc23)c1 [III-291]	7.68
Cc1ccc(NS(=O)(=O)CCC(F)(F)F)cc1Nc1ncnc2cnc(N3CCN(C)CC3)nc12 [IV-59]	5.70
Cc1ccc(C(=O)Nc2cccc(C(F)(F)F)c2)cc1Nc1ncnc2c(N)nc(N3CCCN(C4CC4)CC3)nc12 [I-58]	9.00
Cc1ccc(C(=O)Nc2cccc(C(C)(C)C)c2)cc1Nc1ncnc2cnc(NCC(C)C)nc12 [III-500]	> 9.00
Cc1ccc(C(=O)Nc2ccc(F)c(C(F)(F)F)c2)cc1Nc1ncnc2cnc(N3CCCN(C)CC3)nc12 [III-216]	8.52
Cc1ccc(C(=O)Nc2cccc(C(F)(F)F)c2)cc1Nc1ncnc2cnc(N3CCN(C)CC3)nc12 [III-298]	9.00
CN(C)c1ncc2ncnc(Nc3cc(C(=O)Nc4cc(C(C)(C)C)on4)ccc3Cl)c2n1 [III-69]	8.22
COc1ccc(C(=O)Nc2cc(C(C)(C)C)on2)cc1Nc1ncnc2cnc(N3CCOCC3)nc12 [III-81]	8.70
CC(C)(C)c1cc(NC(=O)c2ccc(F)c(Nc3ncnc4cnc(N5CCOCC5)nc34)c2)no1 [III-89]	8.40
Cc1ccc(C(=O)Nc2cccc(C(C)(C)C#N)c2)cc1Nc1ncnc2cnc(N3CCCN(C)CC3)nc12 [III-180]	8.52
COc1ccc(NC(=O)c2ccc(F)c(Nc3ncnc4cnc(N5CCOCC5)nc34)c2)cc1C(F)(F)F [III-37]	8.40
COc1ccc(NC(=O)c2ccc(C)c(Nc3ncnc4c(N)nc(N5CCCN(C)CC5)nc34)c2)cc1C(F)(F)F [I-17]	9.00
Cc1ccc(C(=O)Nc2nnc(C(F)(F)F)s2)cc1Nc1ncnc2cnc(N3CCCCC3)nc12 [III-328]	6.35
